Literature values in US20140004177A1, “COX-2 INHIBITORS AND RELATED COMPOUNDS, AND SYSTEMS AND METHODS FOR DELIVERY THEREOF” (Strategic Science & Technologies, LLC, priority 2010, published 2014).

- pKa: 19.7
Structure (SMILES): CS(=O)(=O)c1ccc(C2=C(c3ccccc3)C(=O)OC2)cc1 [rofecoxib]
